Experimental data published in the NIST ThermoML archive (doi:10.1016/j.fluid.2018.06.004).

Conditions: 101.33 kPa, Liquid, transient hot wire

O [water]
Conditions | thermal conductivity [W/m/K]
293.09 K | 0.6056
299.55 K | 0.613
309.83 K | 0.6313
314.96 K | 0.6399
319.56 K | 0.6399
324.64 K | 0.6492
332.53 K | 0.6555
339.33 K | 0.657
340.41 K | 0.6654
349.41 K | 0.6723

CCCCCCCC(=O)OCC [ethyl octanoate]
Conditions | thermal conductivity [W/m/K]
254.76 K | 0.1484
264.72 K | 0.1462
274.7 K | 0.144
284.63 K | 0.1422
294.53 K | 0.1405
300.47 K | 0.1387
307.05 K | 0.1366
310.45 K | 0.1356
320.37 K | 0.1336
330.4 K | 0.1312
340.34 K | 0.1286
350.38 K | 0.1268
360.32 K | 0.1234
370.25 K | 0.1211
380.17 K | 0.1188
390.39 K | 0.1167
400.37 K | 0.1142

CCCCCCCCCCCCCC(=O)OCC [ethyl tetradecanoate]
Conditions | thermal conductivity [W/m/K]
290.64 K | 0.1515
298.29 K | 0.1501
307.33 K | 0.1481
315.2 K | 0.1465
324.22 K | 0.1448
333.17 K | 0.1426
340.99 K | 0.1406
350.11 K | 0.1383
359.07 K | 0.137
367.97 K | 0.1342
377.86 K | 0.1326
389.06 K | 0.1297
393.88 K | 0.1286

CCCCCCC(=O)OCC [ethyl heptanoate]
Conditions | thermal conductivity [W/m/K]
250.38 K | 0.1482
260.21 K | 0.1463
270.16 K | 0.1441
280.02 K | 0.1414
289.93 K | 0.1397
299.84 K | 0.137
309.9 K | 0.1343
319.73 K | 0.1321
329.73 K | 0.1294
337.72 K | 0.127
341.71 K | 0.1259
347.65 K | 0.1251
353.6 K | 0.1235
363.5 K | 0.121
373.51 K | 0.1183
383.64 K | 0.1155
393.46 K | 0.1139

CCO [ethanol]
Conditions | thermal conductivity [W/m/K]
276.51 K | 0.1719
280.8 K | 0.1687
284.27 K | 0.1699
290.37 K | 0.1677
293.43 K | 0.1658

CCCCCCCCCC(=O)OCC [ethyl decanoate]
Conditions | thermal conductivity [W/m/K]
270 K | 0.1483
279.98 K | 0.1463
289.85 K | 0.1442
299.64 K | 0.1422
309.6 K | 0.14
319.72 K | 0.1375
329.53 K | 0.1355
339.49 K | 0.1332
349.51 K | 0.1307
359.46 K | 0.1284
369.3 K | 0.1266
374.44 K | 0.1248
379.49 K | 0.1238
389.25 K | 0.1214
400.44 K | 0.1195

CCCCCCCCCCCC(=O)OCC [ethyl dodecanoate]
Conditions | thermal conductivity [W/m/K]
274.73 K | 0.151
284.69 K | 0.1489
294.56 K | 0.1471
304.59 K | 0.1446
314.47 K | 0.1424
324.41 K | 0.1399
334.28 K | 0.1377
344.09 K | 0.1362
349.21 K | 0.1343
354.09 K | 0.1334
359.09 K | 0.1321
369.13 K | 0.1296
379.1 K | 0.1275
389.1 K | 0.1253
400.08 K | 0.1229
